Data from ChEMBL document CHEMBL1123410, “Selective thromboxane synthetase inhibitors. 2. 3-(1H-imidazol-1-ylmethyl)-2-methyl-1H-indole-1-propanoic acid and analogues” (J Med Chem, 1986).

What was measured:
[1] = target: T1, Cytochrome P450 11B1, mitochondrial (Rattus norvegicus, UniProt P15393); assay: Inhibition of 11 beta-hydroxylase from rat adrenal gland; assay type: tissue-based
T1 sequence (P15393 whole entry): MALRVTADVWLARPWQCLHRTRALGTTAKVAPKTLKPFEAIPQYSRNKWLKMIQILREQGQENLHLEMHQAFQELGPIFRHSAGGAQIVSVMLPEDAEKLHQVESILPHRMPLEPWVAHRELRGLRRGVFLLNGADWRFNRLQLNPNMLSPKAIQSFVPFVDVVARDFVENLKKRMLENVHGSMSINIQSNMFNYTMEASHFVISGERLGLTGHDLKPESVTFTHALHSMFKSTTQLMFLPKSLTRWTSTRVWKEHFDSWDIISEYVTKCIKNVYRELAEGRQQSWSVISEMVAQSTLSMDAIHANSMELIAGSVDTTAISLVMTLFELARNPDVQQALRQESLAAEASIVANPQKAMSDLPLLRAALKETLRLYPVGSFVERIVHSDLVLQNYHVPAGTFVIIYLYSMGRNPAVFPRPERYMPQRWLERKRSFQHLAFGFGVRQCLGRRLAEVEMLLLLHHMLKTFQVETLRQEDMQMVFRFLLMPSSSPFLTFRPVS

Thromboxane-A synthase = target: T2, Thromboxane-A synthase (Homo sapiens, UniProt P24557); assay: Inhibition of TXA2 synthetase from human platelets
T2 sequence (P24557 whole entry): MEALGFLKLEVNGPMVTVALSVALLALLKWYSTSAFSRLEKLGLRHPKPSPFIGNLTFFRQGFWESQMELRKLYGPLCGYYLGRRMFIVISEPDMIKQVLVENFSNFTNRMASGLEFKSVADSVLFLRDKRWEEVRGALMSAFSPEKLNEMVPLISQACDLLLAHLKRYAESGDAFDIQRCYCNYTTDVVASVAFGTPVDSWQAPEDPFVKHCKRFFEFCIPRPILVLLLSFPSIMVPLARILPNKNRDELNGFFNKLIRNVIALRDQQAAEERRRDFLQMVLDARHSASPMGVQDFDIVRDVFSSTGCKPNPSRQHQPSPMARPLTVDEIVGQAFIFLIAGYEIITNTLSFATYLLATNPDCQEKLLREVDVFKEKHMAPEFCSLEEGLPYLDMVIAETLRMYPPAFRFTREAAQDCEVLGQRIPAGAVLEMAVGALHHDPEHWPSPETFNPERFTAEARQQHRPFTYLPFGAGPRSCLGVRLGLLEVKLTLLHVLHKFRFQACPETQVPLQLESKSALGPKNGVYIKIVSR

[2] = target: T3, Prostaglandin G/H synthase (cyclooxygenase) (Ovis aries, UniProt P05979+P79208); assay: Inhibition of Prostaglandin G/H synthase from ram seminal vesicle microsomes
T3 sequence (P05979 whole entry): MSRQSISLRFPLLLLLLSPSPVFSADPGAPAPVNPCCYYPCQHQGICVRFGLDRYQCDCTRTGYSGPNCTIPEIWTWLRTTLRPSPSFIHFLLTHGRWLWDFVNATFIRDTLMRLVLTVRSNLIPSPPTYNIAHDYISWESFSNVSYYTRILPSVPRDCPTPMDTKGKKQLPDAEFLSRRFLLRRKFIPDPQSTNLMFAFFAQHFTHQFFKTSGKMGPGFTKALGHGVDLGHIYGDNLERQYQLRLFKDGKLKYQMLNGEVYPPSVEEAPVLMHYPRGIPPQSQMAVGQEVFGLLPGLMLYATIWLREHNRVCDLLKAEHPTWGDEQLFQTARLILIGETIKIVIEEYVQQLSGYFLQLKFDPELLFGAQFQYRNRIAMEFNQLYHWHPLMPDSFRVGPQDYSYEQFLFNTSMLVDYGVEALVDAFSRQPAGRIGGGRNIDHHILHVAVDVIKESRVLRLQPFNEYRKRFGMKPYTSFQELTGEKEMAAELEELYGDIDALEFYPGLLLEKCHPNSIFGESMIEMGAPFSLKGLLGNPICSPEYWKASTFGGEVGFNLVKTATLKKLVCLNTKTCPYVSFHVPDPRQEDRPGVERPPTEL
T3 sequence (P79208 whole entry): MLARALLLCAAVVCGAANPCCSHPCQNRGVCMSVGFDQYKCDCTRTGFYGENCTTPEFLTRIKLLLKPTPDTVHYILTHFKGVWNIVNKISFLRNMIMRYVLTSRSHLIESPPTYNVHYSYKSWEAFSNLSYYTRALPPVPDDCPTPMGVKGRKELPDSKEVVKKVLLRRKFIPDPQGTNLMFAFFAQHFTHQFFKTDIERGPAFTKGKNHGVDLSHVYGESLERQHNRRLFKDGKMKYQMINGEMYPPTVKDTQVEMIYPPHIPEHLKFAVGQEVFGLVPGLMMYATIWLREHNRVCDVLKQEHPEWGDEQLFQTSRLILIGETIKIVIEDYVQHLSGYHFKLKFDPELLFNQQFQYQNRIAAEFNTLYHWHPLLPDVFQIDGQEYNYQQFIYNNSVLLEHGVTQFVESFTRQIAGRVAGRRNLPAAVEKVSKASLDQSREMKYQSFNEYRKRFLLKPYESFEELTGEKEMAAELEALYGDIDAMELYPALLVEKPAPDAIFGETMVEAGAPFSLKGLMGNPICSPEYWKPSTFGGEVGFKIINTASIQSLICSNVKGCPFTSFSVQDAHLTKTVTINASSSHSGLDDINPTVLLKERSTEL

| IC50 [1] | IC50 (Thromboxane-A synthase) | IC50 [2] | SMILES |
| --- | --- | --- | --- |
| > 10000 nM | 8.2 nM | – | CC(C)c1c(Cn2ccnc2)c2ccccc2n1CCC(=O)O |
| – | 4.9 nM | – | O=C(O)CCn1c(C2CC2)c(Cn2ccnc2)c2ccccc21 |
| – | 4600 nM | – | FC(F)(F)c1ccc2c(Cn3ccnc3)c[nH]c2c1 |
| – | 70 nM | – | Cc1c(Cn2ccnc2)c2ccccc2n1/C=C/C(=O)O |
| 10000 nM | 8.4 nM | > 0.0001 M | CCn1cc(Cn2ccnc2)c2ccccc21 |
| 10000 nM | 25 nM | > 0.001 M | c1ccc2c(Cn3ccnc3)c[nH]c2c1 |
| – | 10 nM | – | O=C(O)CCn1cc(Cn2ccnc2)c2ccc(C(F)(F)F)cc21 |
| – | 12 nM | – | O=C(O)CCn1cc(Cn2ccnc2)c2cc(Br)ccc21 |
| – | 3000 nM | – | Clc1ccc2[nH]cc(Cn3ccnc3)c2c1 |
| – | 82 nM | – | CN(C)c1ccc2c(c1)c(Cn1ccnc1)cn2CCC(=O)O |
| – | 30 nM | > 0.0001 M | O=C(O)Cn1cc(Cn2ccnc2)c2ccccc21 |
| > 10000 nM | 19 nM | > 0.0001 M | O=C(O)CCn1cc(Cn2ccnc2)c2ccccc21 |
| – | – | > 0.0001 M | CC(C)c1[nH]c2ccccc2c1Cn1ccnc1 |
| – | 42 nM | – | Cc1ccc2c(c1)c(Cn1ccnc1)cn2CCC(=O)O |
| – | 21 nM | – | O=C(O)CCn1cc(Cn2ccnc2)c2cc(Cl)ccc21 |
| – | 43 nM | – | COc1ccc2c(c1)c(Cn1ccnc1)cn2CCC(=O)O |
| > 100000 nM | 28 nM | > 0.0001 M | Cc1c(Cn2ccnc2)c2ccccc2n1CCC(=O)O [DAZMEGREL] |
| > 100000 nM | – | – | O=C(O)c1ccc(OCCn2ccnc2)cc1 [DAZOXIBEN] |
